Measured values as given in ChEMBL document CHEMBL3885881, “DrugMatrix”.

Species on record: Rattus norvegicus
Experiment: DrugMatrix - Regimen: Daily Repeat
Format: toxicity, organism-based, Sprague-Dawley
Parameters: regimen Daily Repeat, gender Male, age 6-8 weeks
Settings: in vivo, po, 1200 mg/kg, route oral GAVAGE, dose level High, vehicle 100 % WATER; for ALANINE AMINOTRANSFERASE / ALBUMIN / ALKALINE PHOSPHATASE / ASPARTATE AMINOTRANSFERASE / BLOOD UREA NITROGEN / CARBON DIOXIDE / CHLORIDE / CHOLESTEROL / CREATINE PHOSPHOKINASE / CREATININE / GLUCOSE / LACTATE DEHYDROGENASE / LIPASE / PHOSPHORUS / POTASSIUM / SODIUM / TOTAL BILIRUBIN / TOTAL PROTEIN / URIC ACID: tissue Plasma
[1] = 120 h, tissue Blood, time 5 day

For `COCCc1ccc(OCC(O)CNC(C)C)cc1` (configuration not stated) [METOPROLOL], the “ABSOLUTE SEGMENTED NEUTROPHIL” value (72 h, tissue Blood, time 3 day) was 909.67 CELLS/uL, the BASOPHIL (72 h, tissue Blood, time 3 day) was 0% and the EOSINOPHIL (72 h, tissue Blood, time 3 day) was 2.33%. The “ERYTHROCYTE COUNT” value (72 h, tissue Blood, time 3 day) was 5.22 x10E6/uL, the HEMATOCRIT (72 h, tissue Blood, time 3 day) was 33.73% and the HEMOGLOBIN (72 h, tissue Blood, time 3 day) was 12.8 G/DL. For the same molecule, the “LEUKOCYTE COUNT” value (72 h, tissue Blood, time 3 day) was 12.47 x10E3/uL, the LYMPHOCYTE (72 h, tissue Blood, time 3 day) was 90.33% and the “MEAN CORPUSCULAR HEMOGLOBIN” value (72 h, tissue Blood, time 3 day) was 24.57 pg. The “MEAN CORPUSCULAR HEMOGLOBIN CONCENTRATION” value (72 h, tissue Blood, time 3 day) was 37.93 G/DL, the “MEAN CORPUSCULAR VOLUME” value (72 h, tissue Blood, time 3 day) was 64.7 fL and the MONOCYTE (72 h, tissue Blood, time 3 day) was 0%. The NEUTROPHIL (72 h, tissue Blood, time 3 day) was 7.33%, the “NUCLEATED RED BLOOD CELLS” value (72 h, tissue Blood, time 3 day) was 0 /100WBC and the “PLATELET COUNT” value (72 h, tissue Blood, time 3 day) was 1290.67 x10E3/uL. For the same molecule, the “ALANINE AMINOTRANSFERASE” value (72 h, time 3 day) was 53.67 u/L, the ALBUMIN (72 h, time 3 day) was 3.87 G/DL and the “ALKALINE PHOSPHATASE” value (72 h, time 3 day) was 394 u/L. The “ASPARTATE AMINOTRANSFERASE” value (72 h, time 3 day) was 71 u/L, the “BLOOD UREA NITROGEN” value (72 h, time 3 day) was 17.33 mg/dL and the “CARBON DIOXIDE” value (72 h, time 3 day) was 22.33 mmol/L. For the same molecule, the CHLORIDE (72 h, time 3 day) was 107.33 MEQ/L, the CHOLESTEROL (72 h, time 3 day) was 61.67 mg/dL and the “CREATINE PHOSPHOKINASE” value (72 h, time 3 day) was 205.67 u/L. The CREATININE (72 h, time 3 day) was 0.14 mg/dL, the GLUCOSE (72 h, time 3 day) was 163.67 mg/dL and the “LACTATE DEHYDROGENASE” value (72 h, time 3 day) was 229 u/L. It also gave an LIPASE (72 h, time 3 day) of 8 u/L, a PHOSPHORUS (72 h, time 3 day) of 13.37 mg/dL and a POTASSIUM (72 h, time 3 day) of 7.13 MEQ/L. For the same molecule, the SODIUM (72 h, time 3 day) was 143.6 MEQ/L, the “TOTAL BILIRUBIN” value (72 h, time 3 day) was 0.2 mg/dL and the “TOTAL PROTEIN” value (72 h, time 3 day) was 5.57 G/DL. The “URIC ACID” value (72 h, time 3 day) was 1.77 mg/dL, the “ABSOLUTE BASOPHIL” value [1] was 0 CELLS/uL and the “ABSOLUTE EOSINOPHIL” value [1] was 118 CELLS/uL. The “ABSOLUTE LYMPHOCYTE” value [1] was 10653.33 CELLS/uL, the “ABSOLUTE MONOCYTE” value [1] was 40.33 CELLS/uL and the “ABSOLUTE SEGMENTED NEUTROPHIL” value [1] was 1388.33 CELLS/uL. The BASOPHIL [1] was 0%, the EOSINOPHIL [1] was 1% and the “ERYTHROCYTE COUNT” value [1] was 5.92 x10E6/uL. For the same molecule, the HEMATOCRIT [1] was 35.9%, the HEMOGLOBIN [1] was 13.47 G/DL and the “LEUKOCYTE COUNT” value [1] was 12.2 x10E3/uL. For the same molecule, the LYMPHOCYTE [1] was 87.33%, the “MEAN CORPUSCULAR HEMOGLOBIN” value [1] was 22.77 pg and the “MEAN CORPUSCULAR HEMOGLOBIN CONCENTRATION” value [1] was 37.5 G/DL. The “MEAN CORPUSCULAR VOLUME” value [1] was 60.63 fL, the MONOCYTE [1] was 0.33% and the NEUTROPHIL [1] was 11.33%. The “NUCLEATED RED BLOOD CELLS” value [1] was 0 /100WBC, the “PLATELET COUNT” value [1] was 1269 x10E3/uL and the “ALANINE AMINOTRANSFERASE” value (120 h, time 5 day) was 41.67 u/L. For the same molecule, the ALBUMIN (120 h, time 5 day) was 4 G/DL, the “ALKALINE PHOSPHATASE” value (120 h, time 5 day) was 311.67 u/L and the “ASPARTATE AMINOTRANSFERASE” value (120 h, time 5 day) was 79 u/L. The “BLOOD UREA NITROGEN” value (120 h, time 5 day) was 16 mg/dL, the “CARBON DIOXIDE” value (120 h, time 5 day) was 25 mmol/L and the CHLORIDE (120 h, time 5 day) was 102.33 MEQ/L. The CHOLESTEROL (120 h, time 5 day) was 50.67 mg/dL, the “CREATINE PHOSPHOKINASE” value (120 h, time 5 day) was 364.33 u/L and the CREATININE (120 h, time 5 day) was 0.21 mg/dL. For the same molecule, the GLUCOSE (120 h, time 5 day) was 161.33 mg/dL, the “LACTATE DEHYDROGENASE” value (120 h, time 5 day) was 430 u/L and the LIPASE (120 h, time 5 day) was 8 u/L. It also gave a PHOSPHORUS (120 h, time 5 day) of 11.67 mg/dL, a POTASSIUM (120 h, time 5 day) of 6.24 MEQ/L and an SODIUM (120 h, time 5 day) of 141.53 MEQ/L. For the same molecule, the “TOTAL BILIRUBIN” value (120 h, time 5 day) was 0.2 mg/dL, the “TOTAL PROTEIN” value (120 h, time 5 day) was 5.6 G/DL and the “URIC ACID” value (120 h, time 5 day) was 1.73 mg/dL.
